{"source": "patent US20190308988A1", "about": "“OPIOID RECEPTOR ANTAGONIST PRODRUGS” (Nirsum Laboratories, Inc., priority 2017, published 2019)", "assay": "Plasma stability, human plasma (HPLC-MS)", "type": "in vitro ADME", "details": "2 μM, 37° C., 15 min", "description": "Plasma Stability Determination of the Test Compounds in Rat, Dog, Cynomolgus Monkey and human plasma is performed using HPLC-MS. For rat, incubations are carried out in 96-well polypropylene plates in 5 aliquots of 70 μL each (one for each time point). […] Five time points are analyzed (0, 15, 120, 480 and 1440 min). […] All incubations are performed in duplicates. The samples are analyzed by HPLC-MS. The percentage of parent compound remaining after incubation in plasma is determined.", "data": [{"compound": "C=C1CC[C@@]2(O)C3Cc4ccc(OCOC(=O)OCCCCCCCCCCCC)c5c4[C@@]2(CCN3CC2CC2)[C@H]1O5", "note": "[Compound 24, (((4aS,7aS,12bS)-3-(cyclopropylmethyl)-4a-hydroxy-7-methylene-2,3,4,4a,5,6,7,7a-octahydro-1H-4,12-methanobenzofuro[3,2-e]isoquinolin-9-yl)oxy)methyl dodecyl carbonate]", "values": [{"measurement": "% remaining at time point in minutes, 15 min", "value": 94, "unit": "%"}]}]}
